Test results: patent US20080299076A1, “Compunds and compositions that cause non-apoptotic cell death and uses thereof” (priority 2006, published 2008)
Values after ≈ are worked out from the molar mass of the structure shown.

Columns and labels:
[1] = Stability in mouse liver microsomes; assay type: in vitro ADME; details: after 1 hr
Description: The stability of erastin in mouse and human liver microsomes and in mouse and human plasma was assessed. In both human and mouse liver microsomes, after 1 hr, ˜30% of erastin was converted to its primary metabolite (the O-de-ethylated product). In both human and mouse plasma, only ˜10% of erastin was lost after five hours. Thus, erastin has sufficient metabolic and plasma stability to be tested in vivo in mice.

[2] = system: Caspase-3; assay: Caspase-3 cleavage (western blot); assay type: cell-based
[3] = system: TC32; assay: Response of tumor cell lines to erastin (dose-response); assay type: cell-based
Description: (§1) Given that oncogenic RAS activates at least four downstream pathways, analysis was performed to identify which downstream effects were necessary for erastin sensitivity. In certain embodiments, the invention provides that erastin inhibits growth and kills genuine tumor cells with RAS mutations. In other embodiments, the invention provides measures of the dose-response of 29 tumor cell lines to erastin, wherein there is at least 50% inhibition of viability in 18 of the cell lines (Table 4). Numerous sarcoma-derived tumor cell lines were sensitive to erastin, consistent with the fact that erastin was discovered in an engineered tumor cell line created from human fibroblasts.

[4] = system: HCT 116; assay: as above; assay type: cell-based; details: HCT 116, colorectal carcinoma
Description: as §1

[5] = system: SW872; assay: as above; assay type: cell-based
Description: as §1

[6] = system: HL-60; assay: as above; assay type: cell-based
Description: as §1

[7] = system: SK-LMS-1; assay: as above; assay type: cell-based
Description: as §1

[8] = system: SW982; assay: as above; assay type: cell-based; details: SW982, synovial sarcoma
Description: as §1

[9] = system: Hs51.T; assay: as above; assay type: cell-based
Description: as §1

[10] = system: A431NS; assay: as above; assay type: cell-based; details: Epidermoid carcinoma
Description: as §1

[11] = system: SK-ES-1; assay: as above; assay type: cell-based
Description: as §1

[12] = system: SJSA-1; assay: as above; assay type: cell-based
Description: as §1

[13] = system: C-33A; assay: as above; assay type: cell-based
Description: as §1

[14] = system: TC71; assay: as above; assay type: cell-based
Description: as §1

[15] = system: MX2; assay: as above; assay type: cell-based
Description: as §1

[16] = system: U973; assay: as above; assay type: cell-based
Description: as §1

[17] = system: SVR; assay: as above; assay type: cell-based
Description: as §1

[18] = system: HOS; assay: as above; assay type: cell-based
Description: as §1

[19] = system: SK-N-MC; assay: as above; assay type: cell-based
Description: as §1

[20] = system: LNCaP; assay: as above; assay type: cell-based
Description: as §1

[21] = system: HeLa; assay: as above; assay type: cell-based
Description: as §1

[22] = system: Hs 925.T; assay: as above; assay type: cell-based
Description: as §1

[23] = system: U-2 OS; assay: as above; assay type: cell-based
Description: as §1

[24] = system: EWS502; assay: as above; assay type: cell-based
Description: as §1

[25] = system: MES-SA; assay: as above; assay type: cell-based
Description: as §1

[26] = system: A549; assay: as above; assay type: cell-based; details: A549, lung carcinoma
Description: as §1

[27] = system: SK-UT; assay: as above; assay type: cell-based
Description: as §1

[28] = system: A549 cells; assay: Alamar Blue viability assay; assay type: cell-based; details: Homo sapiens; A549 (+KRAS)
Description: (§2) Alamar Blue metabolism: 10% Alamar Blue was added to assay plates, which were then incubated for an additional 16 hours. Red fluorescence, resulting from reduction of Alamar Blue, was detected on a Victor3 platereader (ex: 530, em: 590).
(§3) Table 2. Activity of RAS-selective lethal compound erastin in tumor cell lines. IC50 values (ng/mL) are shown using the Alamar Blue viability assay. BJ engineered tumor cells express TERT, LT, ST, and oncogenic RAS. Isogenic RAS^V12 lacking cells are identical but lack HRAS^V12. BJ-DRD cells are derived from BJ cells and contain TERT, oncogenic RAS, a truncated from of p53 (p53DD) that disrupts the tetramerization of endogenous p53, a CDK4(R24C) mutant resistant to inhibition by p16INK4A and p151NK4B (the major negative regulators of CDK4) and cyclin D1. These latter protein substitute for LT. HCT-116, A549, Calu-1, and MIA PaCa-2 are tumor cells derived from cancers (colon, lung, lung and pancreatic, respectively) known to have activating mutations in RAS.

[29] = system: Calu-1 cells; assay: Alamar Blue viability assay; assay type: cell-based; details: Homo sapiens; Calu-1 (+KRAS)
Description: as §2, §3

CCOc1ccccc1-n1c(C(C)N2CCN(C(=O)COc3ccc(Cl)cc3)CC2)nc2ccccc2c1=O (centres unmarked) [erastin, 2-(1-{4-[2-(4-Chloro-phenoxy)-acetyl]-piperazin-1-yl}-ethyl)-3-(2-ethoxy-phenyl)-3H-quinazolin-4-one]
converted to primary metabolite (O-de-ethylated product) [1]: ~30% | Caspase-3 cleavage [2]: not cleaved | EC50 ([3]; Homo sapiens, TC-32, TC32): 8 µM | Erastin Sensitivity (maximum percent killing, as fraction) ([3]; TC 32): 0.88 | Max % killing ([3]; TC32, Peripheral neuroepithelioma): 88% | Max % killing [4]: 0% | Erastin Sensitivity (maximum percent killing, as fraction) ([5]; SW 872): 0.00 | Max % killing ([5]; SW872, Liposarcoma): 0% | Erastin Sensitivity (maximum percent killing, as fraction) ([6]; HL 60): 0.00 | Max % killing ([6]; HL-60, acute promyelocytic leukemia): 0% | EC50 ([7]; Homo sapiens, SK-LMS-1): 6 µM | Max % killing ([7]; SK-LMS-1, Leimyosarcoma, vulva): 100% | Max % killing [8]: 0% | EC50 [9]: 12 µM | Max % killing ([9]; Spindle cell sarcoma): 88% | Max % killing [10]: 0% | EC50 ([11]; Homo sapiens, SK-ES1, SK-ES-1): 7 µM | Max % killing ([11]; SK-ES-1, Ewing sarcoma): 96% | Erastin Sensitivity (maximum percent killing, as fraction) ([11]; SKES1): 0.96 | EC50 ([12]; Homo sapiens, SJSA-1): 12 µM | Max % killing ([12]; SJSA-1, Osteosarcoma): 100% | EC50 ([13]; Homo sapiens): 600 nM | Max % killing ([13]; cervical carcinoma): 21% | Erastin Sensitivity (maximum percent killing, as fraction) ([14]; TC 71): 0.92 | Max % killing ([14]; TC71, Ewing sarcoma): 92% | EC50 ([14]; TC-71, TC71): 10 µM | EC50 ([15]; MX2): 18 µM | Max % killing ([15]; MX2, Uterine Sarcoma): 71% | Erastin Sensitivity (maximum percent killing, as fraction) ([16]; U937): 0.73 | Max % killing ([16]; U973, Acute myelogenous leukemia): 73% | EC50 ([16]; U-973, U973): 10 µM | EC50 ([17]; Mus musculus): 2500 nM | Max % killing ([17]; Pancreatic carcinoma): 20% | EC50 ([18]; Homo sapiens): 17 µM | Max % killing ([18]; Osteosarcoma): 100% | EC50 ([19]; Homo sapiens, SK-N-MC): 10 µM | Erastin Sensitivity (maximum percent killing, as fraction) ([19]; SK N MC): 0.95 | Max % killing ([19]; SK-N-MC, Neuroepithelioma): 95% | EC50 ([20]; Homo sapiens): 6 µM | Max % killing ([20]; prostate carcinoma): 32% | Max % killing ([21]; Cervical carcinoma): 94% | EC50 ([21]; Homo sapiens): 600 nM | EC50 [22]: 17 µM | Max % killing ([22]; Pagetoid sarcoma): 83% | EC50 ([23]; Homo sapiens, U2OS): 6 µM | Max % killing ([23]; Osteosarcoma): 96% | EC50 ([24]; EWS502): 10 µM | Erastin Sensitivity (maximum percent killing, as fraction) ([24]; EWS502): 0.42 | Max % killing ([24]; EWS502, Ewing sarcoma): 42% | EC50 ([25]; Homo sapiens): 3000 nM | Max % killing ([25]; Uterine sarcoma): 100% | Max % killing [26]: 0% | EC50 [27]: 4 µM | Max % killing ([27]; Uterine, mixed mesodermal tumor): 73% | IC50 [28]: > 20 µg/mL | IC50 [29]: 1 µg/mL (≈ 1.83 µM)
